Experimental data from paper PMC3625590, “NBM-T-L-BMX-OS01, Semisynthesized from Osthole, Is a Novel Inhibitor of Histone Deacetylase and Enhances Learning and Memory in Rats” (Evidence-based Complementary and Alternative Medicine : eCAM, 2013).
Structures can show the parent of a compound that is named as a salt.

Key:
Sco-induced amnesia rats [1] = experiment: Novel object recognition, Sco-induced memory impairment; format: in vivo, Sprague-Dawley rats; details: Sco 1.5 mg/kg/d; BMX or SAHA 5 mg/kg/d i.p.; 8 h
Method: SAHA was supplied by NatureWise Biotech and Medicals Corporation (Taipei, Taiwan). […] (St. Louis, MO, USA). The BMX and SAHA stock (100 mg/mL) was dissolved in DMSO and diluted with saline to a final concentration of 0.5 mg/mL (in 0.5% DMSO/saline). […] SD rats were randomly divided into 3 groups. For the naïve animal experiments, the BMX-injected or SAHA-injected groups were injected with BMX (5 mg/kg/d) or SAHA (5 mg/kg/d) intraperitoneally 7 d prior to behavioral experiments and during the experimentation. The control group received the 0.5% DMSO/saline injection. The injection volume was 10 μL/g of body weight. The injections were performed once per day. For the amnesia experiment, the protocol was adopted from previous studies with modifications. […] The control group received the 0.5% DMSO/saline injection. The injection volume was 10 μL/g of body weight. […] The method used was adopted from that of a previous study with modifications. During familiarization, rats were allowed to explore 2 identical objects in an open field box (90 × 70 × 60 cm) for 5 min. The criteria used for exploration were a distance less than 1.5 cm between the rat and the object or direct contact with the object. […] The time that each rat spent exploring the 2 objects during a 5 min period was recorded. […]

Sco-induced amnesia rats [2] = experiment: Water-maze learning, Sco-induced memory impairment; format: in vivo, Sprague-Dawley rats; details: Sco 1.5 mg/kg/d; BMX or SAHA 5 mg/kg/d i.p.
Method: SAHA was supplied by NatureWise Biotech and Medicals Corporation (Taipei, Taiwan). […] (St. Louis, MO, USA). The BMX and SAHA stock (100 mg/mL) was dissolved in DMSO and diluted with saline to a final concentration of 0.5 mg/mL (in 0.5% DMSO/saline). […] SD rats were randomly divided into 3 groups. For the naïve animal experiments, the BMX-injected or SAHA-injected groups were injected with BMX (5 mg/kg/d) or SAHA (5 mg/kg/d) intraperitoneally 7 d prior to behavioral experiments and during the experimentation. The control group received the 0.5% DMSO/saline injection. The injection volume was 10 μL/g of body weight. The injections were performed once per day. For the amnesia experiment, the protocol was adopted from previous studies with modifications. […] The control group received the 0.5% DMSO/saline injection. The injection volume was 10 μL/g of body weight. […] The method was adopted from that of a previous study with modifications. A plastic circular pool 2.0 m in diameter and 0.6 m in height was filled with water (25 ± 2°C) to a depth of 20 cm. A circular platform (8 cm in diameter) was placed at a specific location from the edge of the pool and submerged 2-3 cm below the water surface. Water was made cloudy by adding toxic-free dye. Distinctive visual cues were set on the wall. For spatial learning, animals were subjected to 3 trials per day, with one trial early in the morning, one trial at noon, and another in the late afternoon. The training procedure lasted 4 days, and a total of 12 trials were given. This procedure was adopted because spaced training is a better paradigm to facilitate memory consolidation. For these trials, the rats were positioned at different starting points spaced equally around the perimeter of the pool in random order. They had 120 s to find the hidden platform. If a rat could not find the platform, it was guided to the platform and was allowed to remain there for 20 s. The time each animal took to reach the platform was recorded as the escape latency. A probe trial of 120 s was given on day 5 to test their memory retention. The rats were placed in the pool with the platform removed, and the time they spent in each quadrant (Quadrants 1, 2, 3, and 4) was recorded. Quadrant 4 is the target quadrant. For the trained and swimming control experiments, rats in the trained group were subjected to the regular water maze learning procedure. At the end of the experiment, the rats were subjected to visible platform learning. For visible platform learning, a flag was mounted on the platform, and the platform was raised 2.5 cm above the surface of the water. In addition, the dye had not been added, so that the animals could see the location of the platform from the water. […]

## CN1[C@@H]2C[C@@H](OC(=O)[C@H](CO)c3ccccc3)C[C@H]1[C@@H]1O[C@@H]12 [Sco, Scopolamine hydrochloride]
Sco-induced amnesia rats [1]
  exploratory preference for the novel object (NO): showed no exploratory preference for the NO
Sco-induced amnesia rats [2]
  escape latency in finding the hidden platform: showed longer escape latency
  probe trial, time spent in target quadrant: spent less time in the quadrant where the platform had been placed
